What was measured:
Assay type in all cases: biochemical
KDM4B (JMJD2B) = biological target: T1, KDM4B (JMJD2B) (Homo sapiens, UniProt O94953); test: Histone lysine demethylase AlphaLISA assay, KDM4B; details: read-out: KDM4B HDME Inhibition IC50
T1 construct: 2-500; purchased BPS; host or cells: Bac (baculovirus system)
T1 sequence (O94953 2-500): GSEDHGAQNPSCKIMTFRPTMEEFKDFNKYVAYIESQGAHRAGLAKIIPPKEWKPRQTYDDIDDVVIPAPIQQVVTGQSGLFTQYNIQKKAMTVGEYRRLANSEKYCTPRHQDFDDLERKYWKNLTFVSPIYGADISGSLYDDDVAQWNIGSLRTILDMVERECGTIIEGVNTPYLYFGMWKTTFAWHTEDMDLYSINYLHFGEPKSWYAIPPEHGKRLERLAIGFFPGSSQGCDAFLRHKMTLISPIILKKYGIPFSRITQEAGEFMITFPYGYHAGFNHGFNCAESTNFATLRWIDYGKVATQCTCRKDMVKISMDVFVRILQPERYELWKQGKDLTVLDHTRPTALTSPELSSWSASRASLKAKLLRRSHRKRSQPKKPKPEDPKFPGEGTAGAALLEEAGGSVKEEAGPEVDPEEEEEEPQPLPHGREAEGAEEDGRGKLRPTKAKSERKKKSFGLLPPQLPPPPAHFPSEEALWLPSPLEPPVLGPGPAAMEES
Experimental: (§1) Assays are performed analogously to the protocol described by PerkinElmer (Roy et al. PerkinElmer Technical Note: AlphaLISA #12, April 2011)
(§2) Enzymes are dissolved in enzyme buffer and incubated for 10 min before being added to 3% DMSO solutions of compounds in enzyme buffer. Incubated for another 10 minutes, before substrate solution is added and the reaction mixture is incubated at room temperature. 10 μL acceptor beads, suspended in Epigenetic Buffer (Perkin Elmer AL008) from stock, are added and the suspension is incubated in the dark at room temperature, before a suspension of streptavidin donor beads (Perkin Elmer 6760002) in Epigenetic Buffer is added. After incubation at room temperature in the dark the plates are read.
BK9M3: Biotin-ARTKQTAR(KMe3)STGGKAPRKQ-NH2 (Caslo, Denmark) […]
(§3) Substrate Solution: Substrate, 25 μM L-Asc, and 10 μM α-KG in Buffer A.

KDM6B (JMJD3) = biological target: T2, KDM6B (JMJD3) (Homo sapiens, UniProt O15054); test: Histone lysine demethylase AlphaLISA assay, KDM6B; details: read-out: KDM6B HDME Inhibition IC50
T2 construct: 1043-end; purchased BPS; host or cells: Bac (baculovirus system)
T2 sequence (O15054 1043-1682 isoform O15054-1 limits assumed): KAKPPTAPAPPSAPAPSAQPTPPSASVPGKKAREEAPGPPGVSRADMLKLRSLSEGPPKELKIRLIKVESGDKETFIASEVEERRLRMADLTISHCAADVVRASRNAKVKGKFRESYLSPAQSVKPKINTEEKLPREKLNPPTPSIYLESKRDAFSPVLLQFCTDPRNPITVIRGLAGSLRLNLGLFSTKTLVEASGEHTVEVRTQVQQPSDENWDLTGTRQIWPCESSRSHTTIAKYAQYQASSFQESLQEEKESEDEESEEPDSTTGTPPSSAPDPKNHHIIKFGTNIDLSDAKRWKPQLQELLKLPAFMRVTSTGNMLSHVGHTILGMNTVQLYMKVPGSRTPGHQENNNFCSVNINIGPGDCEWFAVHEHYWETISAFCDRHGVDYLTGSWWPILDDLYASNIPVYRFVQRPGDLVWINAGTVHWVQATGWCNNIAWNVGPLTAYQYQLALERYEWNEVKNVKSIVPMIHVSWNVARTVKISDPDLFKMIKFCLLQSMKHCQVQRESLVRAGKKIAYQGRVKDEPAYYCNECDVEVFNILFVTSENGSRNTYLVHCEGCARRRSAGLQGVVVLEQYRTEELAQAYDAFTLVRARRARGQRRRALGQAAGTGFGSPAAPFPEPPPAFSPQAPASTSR
Experimental: as §1
as §2, with “read. […]” for “read.”
BK27M3: Biotin-ATKAAR(Kme3)SAPATGGVKKPHRY-NH2? (Caslo, Denmark) […]
as §3

KDM5B (PLU-1) = biological target: T3, KDM5B (PLU-1) (Homo sapiens, UniProt Q9UGL1); test: Histone lysine demethylase AlphaLISA assay, KDM5B; details: read-out: KDM5B HDME Inhibition IC50
T3 sequence (Q9UGL1 1-809): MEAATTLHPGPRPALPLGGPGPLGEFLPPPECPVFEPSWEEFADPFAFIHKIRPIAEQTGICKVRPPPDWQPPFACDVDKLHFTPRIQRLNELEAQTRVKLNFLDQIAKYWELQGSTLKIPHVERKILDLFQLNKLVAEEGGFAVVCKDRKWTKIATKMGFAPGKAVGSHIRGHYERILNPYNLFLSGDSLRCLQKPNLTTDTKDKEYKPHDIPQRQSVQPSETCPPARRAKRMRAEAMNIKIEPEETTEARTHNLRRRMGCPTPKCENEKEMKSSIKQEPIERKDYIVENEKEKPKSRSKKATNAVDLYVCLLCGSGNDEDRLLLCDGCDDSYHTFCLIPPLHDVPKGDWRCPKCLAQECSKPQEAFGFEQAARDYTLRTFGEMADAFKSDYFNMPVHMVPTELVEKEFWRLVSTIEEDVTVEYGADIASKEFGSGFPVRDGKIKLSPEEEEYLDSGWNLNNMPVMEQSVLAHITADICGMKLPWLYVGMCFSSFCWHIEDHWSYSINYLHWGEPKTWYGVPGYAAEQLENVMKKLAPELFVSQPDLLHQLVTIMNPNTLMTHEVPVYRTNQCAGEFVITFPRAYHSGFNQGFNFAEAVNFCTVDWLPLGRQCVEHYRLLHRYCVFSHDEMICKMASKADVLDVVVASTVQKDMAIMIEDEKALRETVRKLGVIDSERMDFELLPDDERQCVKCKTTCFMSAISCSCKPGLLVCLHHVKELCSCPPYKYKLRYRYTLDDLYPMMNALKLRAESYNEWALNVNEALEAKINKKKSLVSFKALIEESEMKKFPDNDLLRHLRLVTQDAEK
Method in brief: (§4)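 Steps: enzyme equilibrated 10 min in buffer; compounds in 3% DMSO solution added, 10 min; substrate mix added (peptide, 25 μM L-Asc, 10 μM α-KG), room temperature; acceptor beads, then streptavidin donor beads, dark incubations; plate read.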

KDM6A (UTX) = KDM6A (UTX) (Homo sapiens, UniProt O15550); test: Histone lysine demethylase AlphaLISA assay, KDM6A; details: read-out: KDM6A HDME Inhibition IC50
KDM6A (UTX), sequence (O15550 919-1401): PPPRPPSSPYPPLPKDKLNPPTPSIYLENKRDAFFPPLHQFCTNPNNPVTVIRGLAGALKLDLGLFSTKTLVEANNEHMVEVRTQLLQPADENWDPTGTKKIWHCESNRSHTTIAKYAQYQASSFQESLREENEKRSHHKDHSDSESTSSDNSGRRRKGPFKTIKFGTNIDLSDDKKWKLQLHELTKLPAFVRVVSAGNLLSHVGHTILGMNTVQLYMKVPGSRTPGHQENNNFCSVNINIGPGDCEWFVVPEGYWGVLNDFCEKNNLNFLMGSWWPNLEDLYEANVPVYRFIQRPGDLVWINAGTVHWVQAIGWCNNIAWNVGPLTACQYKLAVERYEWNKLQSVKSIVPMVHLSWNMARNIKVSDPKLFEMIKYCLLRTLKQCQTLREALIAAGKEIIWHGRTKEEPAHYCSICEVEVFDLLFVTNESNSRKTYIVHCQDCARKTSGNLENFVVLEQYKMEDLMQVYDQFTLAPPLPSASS
Method in brief: as §4

KDM5C (JARID1C) = biological target: T4, KDM5C (JARID1C) (Homo sapiens, UniProt P41229); test: Histone lysine demethylase AlphaLISA assay, KDM5C; details: read-out: KDM5C HDME Inhibition IC50
T4 construct: 2-1560; purchased BPS; host or cells: Bac (baculovirus system)
T4 sequence (P41229 2-1560): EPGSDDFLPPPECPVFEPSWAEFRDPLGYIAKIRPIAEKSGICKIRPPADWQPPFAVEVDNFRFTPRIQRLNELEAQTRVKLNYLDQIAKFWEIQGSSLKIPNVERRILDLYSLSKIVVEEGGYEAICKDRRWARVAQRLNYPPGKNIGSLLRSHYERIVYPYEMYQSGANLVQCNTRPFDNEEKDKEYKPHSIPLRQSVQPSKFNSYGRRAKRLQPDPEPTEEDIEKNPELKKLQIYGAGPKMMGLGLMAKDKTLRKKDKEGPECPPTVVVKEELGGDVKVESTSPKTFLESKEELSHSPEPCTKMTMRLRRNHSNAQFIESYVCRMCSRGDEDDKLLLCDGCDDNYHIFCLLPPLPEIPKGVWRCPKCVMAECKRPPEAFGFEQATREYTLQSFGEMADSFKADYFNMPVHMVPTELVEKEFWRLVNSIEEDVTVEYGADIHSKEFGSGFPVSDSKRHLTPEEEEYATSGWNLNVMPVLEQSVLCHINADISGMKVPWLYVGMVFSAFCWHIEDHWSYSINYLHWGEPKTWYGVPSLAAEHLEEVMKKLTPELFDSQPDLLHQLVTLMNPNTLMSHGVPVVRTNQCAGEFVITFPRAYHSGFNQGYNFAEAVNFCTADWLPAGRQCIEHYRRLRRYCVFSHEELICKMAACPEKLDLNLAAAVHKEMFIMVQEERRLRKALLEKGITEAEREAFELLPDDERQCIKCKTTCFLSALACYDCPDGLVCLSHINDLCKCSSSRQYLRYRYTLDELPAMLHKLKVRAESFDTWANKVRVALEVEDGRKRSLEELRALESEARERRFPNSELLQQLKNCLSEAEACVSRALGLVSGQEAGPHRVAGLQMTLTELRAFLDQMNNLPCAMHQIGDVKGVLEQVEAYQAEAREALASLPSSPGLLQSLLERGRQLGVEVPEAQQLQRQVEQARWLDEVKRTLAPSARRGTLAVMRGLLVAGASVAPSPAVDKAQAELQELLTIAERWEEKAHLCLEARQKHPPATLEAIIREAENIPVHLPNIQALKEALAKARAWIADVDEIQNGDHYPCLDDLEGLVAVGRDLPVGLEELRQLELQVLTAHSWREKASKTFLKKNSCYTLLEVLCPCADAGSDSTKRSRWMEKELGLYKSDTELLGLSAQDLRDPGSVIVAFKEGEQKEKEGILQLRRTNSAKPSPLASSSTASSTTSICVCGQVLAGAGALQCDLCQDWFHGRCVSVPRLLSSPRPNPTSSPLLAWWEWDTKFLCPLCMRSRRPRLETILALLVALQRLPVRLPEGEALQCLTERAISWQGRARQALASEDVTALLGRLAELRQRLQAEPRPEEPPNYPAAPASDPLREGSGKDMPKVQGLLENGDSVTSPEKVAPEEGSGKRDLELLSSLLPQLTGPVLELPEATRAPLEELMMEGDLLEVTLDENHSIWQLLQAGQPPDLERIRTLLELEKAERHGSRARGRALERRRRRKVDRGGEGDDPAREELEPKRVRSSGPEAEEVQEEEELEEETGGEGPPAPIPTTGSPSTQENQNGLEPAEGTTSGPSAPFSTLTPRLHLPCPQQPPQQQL
Experimental: as §1
as §2, with “read. […]” for “read.”
H3K4M3B: H-ART(Kme3)QTARKSTGGKAPRKQLA-NH-Biotin (Caslo, Denmark) […]
as §3

| SMILES | IC50 (KDM4B (JMJD2B)) | IC50 (KDM6B (JMJD3)) | IC50 (KDM5B (PLU-1)) | IC50 (KDM6A (UTX)) | IC50 (KDM5C (JARID1C)) |
| --- | --- | --- | --- | --- | --- |
| CCN(CC)CCCCNCc1cc(CN)ccn1 [Compound 5, [2-({[4-(diethylamino)butyl]-amino}methyl)pyridin-4-yl]methanamine] | > 2500 nM | > 2500 nM | > 2500 nM | > 2500 nM | – |
| NCc1ccnc(CNCCCCN2CCC2)c1 [Compound 7, [2-({[4-(azetidin-1-yl)butyl]amino}methyl)-pyridin-4-yl]-methanamine] | < 250 nM | > 2500 nM | 250 to 2500 nM | > 2500 nM | – |
| CN(C)CCCCNCc1cc(CNC2CC2)ccn1 [Compound 10, N-{[2-({[4-(dimethylamino)butyl]-amino}methyl)pyridin-4-yl]methyl}-cyclopropanamine] | > 2500 nM | > 2500 nM | > 2500 nM | > 2500 nM | – |
| CC1CCCCN1CCCNCc1cc(CNC2CC2)ccn1 (stereo not shown) [Compound 11, N-{[2-({[3-(2-methylpiperidin-1-yl)propyl]amino}methyl)-pyridin-4-yl]methyl}-cyclopropanamine] | > 2500 nM | > 2500 nM | 250 to 2500 nM | > 2500 nM | – |
| CN(CCCNCc1cc(/C=N/C2CC2)ccn1)Cc1ccccc1 [Compound 41, N-({2-[({3-[benzyl(methyl)amino]-propyl}amino)methyl]-pyridin-4-yl}methylidene)-cyclopropanamine] | < 250 nM | > 2500 nM | < 250 nM | > 2500 nM | – |
| CCN(CC)CCCCNCc1cc(/C=N\CCC2CCCCC2)ccn1 [Compound 67, (2-cyclohexylethyl)-({[2-({[4-(diethylamino)-butyl]amino}methyl)pyridin-4-yl]methylidene})-amine] | > 2500 nM | – | < 250 nM | > 2500 nM | < 250 nM |
| CCN(CCN(C)C)C(=O)CNCc1cc(C2OCC(Cc3ccccc3)CN2C(=O)C(F)(F)F)ccn1 (stereo not shown) [Compound 90, 2-[({4-[5-benzyl-3-(trifluoroacetyl)-1,3-oxazinan-2-yl]pyridin-2-yl}methyl)amino]-N-[2-(dimethylamino)-ethyl]-N-ethylacetamide] | – | – | < 250 nM | > 2500 nM | – |
| CCN(CCN(C)C)C(=O)CNCc1cc(C2OCC3(CC3)CN2C(=O)C(F)(F)F)ccn1 (stereo not shown) [Compound 91, N-[2--(dimethylamino)-ethyl]-N-ethyl-2-[({4-[7-(trifluoroacetyl)-5-oxa-7-azaspiro[2.5]-octan-6-yl]pyridin-2-yl}methyl)amino]-acetamide] | – | – | < 250 nM | > 2500 nM | – |
| CN(Cc1ccccc1F)C(=O)CNCc1cc(/C=N/CCO)ccn1 [Compound 92, N-[(2-fluorophenyl)methyl]-2-[({4-[[(2-hydroxyethyl)imino]-methyl]pyridin-2-yl}methyl)amino]-N-methylacetamide] | – | – | 250 to 2500 nM | > 2500 nM | – |
| OCC/N=C/c1ccnc(CNCCc2ccccc2OCc2ccccc2)c1 [Compound 93, 2-[({2-[({2-[2-(benzyloxy)phenyl]-ethyl}amino)methyl]-pyridin-4-yl}methylidene)-amino]ethan-1-ol] | – | – | > 2500 nM | > 2500 nM | – |
| CCN(CCC#N)C(=O)CNCc1cc(/C=N/CCO)ccn1 [Compound 94, N-(2-cyanoethyl)-N-ethyl-2-[({4-[[(2-hydroxyethyl)imino]-methyl]pyridin-2-yl}methyl)amino]-acetamide] | – | – | < 250 nM | > 2500 nM | – |
| CC(C)C[C@H](NCc1cc(/C=N/CCO)ccn1)C(=O)N1CCCCC1 [Compound 95, (2S)-2-[({4-[[(2-hydroxyethyl)imino]-methyl]pyridin-2-yl}methyl)amino]-4-methyl-1-(piperidin-1-yl)pentan-1-one] | – | – | > 2500 nM | > 2500 nM | – |
| CN(C)CC1CCC(CNCc2cc(C=O)ccn2)CC1 (stereo not shown) [Compound 97, 2-{[({4-[(dimethylamino)-methyl]cyclohexyl}-methyl)amino]-methyl}pyridine-4-carbaldehyde] | – | > 2500 nM | 250 to 2500 nM | > 2500 nM | – |
| CN(C)C/C=C\CNCc1cc(C=O)ccn1 [Compound 99, 2-({[(2Z)-4-(dimethylamino)-but-2-en-1-yl]amino}methyl)-pyridine-4-carbaldehyde] | – | > 2500 nM | < 250 nM | > 2500 nM | < 250 nM |
| CN1CCC(CNCc2cc(C=O)ccn2)CC1 [Compound 100, 2-({[(1-methyl-piperidin-4-yl)methyl]amino}-methyl)pyridine-4-carbaldehyde] | – | > 2500 nM | < 250 nM | > 2500 nM | < 250 nM |
| CCN(CC)C(=O)CNCc1cc(C=O)ccn1 [Compound 105, N,N-diethyl-2-{[(4-formylpyridin-2-yl)methyl]amino}-acetamide] | < 250 nM | > 2500 nM | 250 to 2500 nM | > 2500 nM | – |
| CN(C)CCCCNCc1cc(C=O)ccn1 [Compound 108, 2-({[4-(dimethylamino)-butyl]amino}methyl)-pyridine-4-carbaldehyde] | – | > 2500 nM | 250 to 2500 nM | > 2500 nM | < 250 nM |
| CN(C)CCNCc1cc(C=O)ccn1 [Compound 110, 2-({[2-(dimethylamino)-ethyl]amino}methyl)-pyridine-4-carbaldehyde] | – | > 2500 nM | 250 to 2500 nM | > 2500 nM | < 250 nM |
| CCN(CC)CCCCNC(=O)CNCc1cc(C=O)ccn1 [Compound 112, N-[4-(diethylamino)-butyl]-2-{[(4-formylpyridin-2-yl)methyl]amino}-acetamide] | – | > 2500 nM | – | > 2500 nM | < 250 nM |
| CCN(CC)CCCCN(Cc1cc(C=O)ccn1)C(=O)C(F)(F)F [Compound 115, N-[4-(diethylamino)butyl]-2,2,2-trifluoro-N-[(4-formylpyridin-2-yl)methyl]acetamide] | – | > 2500 nM | > 2500 nM | > 2500 nM | < 250 nM |
| CCN(CC(C)(C)N(C)C)C(=O)CNCc1cc(C=O)ccn1 [Compound 118, N-[2-(dimethylamino)-2-methylpropyl]-N-ethyl-2-{[(4-formylpyridin-2-yl)methyl]amino}-acetamide] | – | – | < 250 nM | > 2500 nM | – |
| CN(CC(=O)N1CCCCC1)Cc1cc(C=O)ccn1 [Compound 120, 2-({methyl[2-oxo-2-(piperidin-1-yl)ethyl]amino}-methyl)pyridine-4-carbaldehyde] | – | – | > 2500 nM | > 2500 nM | – |

Reference: patent US9650339B2, “Inhibitors of histone demethylases” (Gilead Sciences, Inc., priority 2013, dated 2017)
